Assay results reported in patent US10597388B2, “Pyridazinone herbicides” (FMC CORPORATION, priority 2014, dated 2020).

Key:
Assay type in all cases: in vivo
[1] = test system: waterhemp_RES1 (ALS & Triazine resistant common waterhemp, Amaranthus rudis); assay: Test E greenhouse herbicide test, postemergence
Procedure, shortened: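 Greenhouse test, 14–21 d after postemergence treatment of 2–18 cm plants; percent control was assessed visually, 0–100, against untreated plants.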

[2] = test system: foxtail, giant (giant foxtail, Setaria faberii); assay: Test E greenhouse herbicide test, pre- and postemergence; details: Preemergence
Procedure, shortened: (§1)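 Herbicidal effect was judged by eye relative to untreated plants 14 to 21 d after spraying, using 0 for no effect and 100 for complete control. Preemergence sprays went onto freshly seeded silt loam; postemergence sprays onto 2–18 cm seedlings.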

[3] = test system: sandbur (southem sandbur, Cenchrus echinatus); assay: as above
Procedure, shortened: as §1

[4] = test system: soybean (Glycine max); assay: as above
Procedure, shortened: as §1

[5] = test system: pigweed, palmer (palmer pigweed, Amaranthus palmeri); assay: as above
Procedure, shortened: as §1

[6] = test system: nutsedge, yellow (yellow nutsedge, Cyperus esculentus); assay: as above; details: Preemergence
Procedure, shortened: as §1

[7] = test system: crabgrass, large (large crabgrass, Digitaria sanguinalis); assay: as above; details: Preemergence
Procedure, shortened: as §1

[8] = test system: panicum, fall (fall panicum, Panicum dichotomiflorum); assay: as above
Procedure, shortened: as §1

[9] = test system: crabgrass, Brazilian (Brazilian crabgrass, Digitaria horizontalis); assay: as above
Procedure, shortened: as §1

[10] = test system: johnsongrass (Sorghum halepense); assay: as above; details: Preemergence
Procedure, shortened: as §1

[11] = test system: lambsquarters (Chenopodium album); assay: as above; details: Preemergence
Procedure, shortened: as §1

[12] = test system: dayflower (Virginia (VA) dayflower, Commelina virginica); assay: as above
Procedure, shortened: as §1

[13] = test system: foxtail, green (green foxtail, Setaria viridis); assay: as above; details: Preemergence
Procedure, shortened: as §1

[14] = test system: kochia (Kochia scoparia); assay: as above
Procedure, shortened: as §1

[15] = test system: corn (Zea mays); assay: as above
Procedure, shortened: as §1

[16] = test system: velvetleaf (Abutilon theophrasti); assay: as above; details: Preemergence
Procedure, shortened: as §1

[17] = 62 g ai/ha, scale 0 to 100 (0 no effect, 100 complete control)
[18] = 125 g ai/ha, scale 0 to 100 (0 no effect, 100 complete control)
[19] = 31 g ai/ha, scale 0 to 100, 0 no effect, 100 complete control
[20] = 125 g ai/ha, visual, scale 0 no effect to 100 complete control
[21] = 250 g ai/ha, visual, scale 0 no effect to 100 complete control
[22] = 62 g ai/ha, Postemergence, scale 0 to 100 (0 no effect, 100 complete control)
[23] = 62 g ai/ha, Preemergence, scale 0 to 100 (0 no effect, 100 complete control)
[24] = 125 g ai/ha, Postemergence, scale 0 to 100 (0 no effect, 100 complete control)
[25] = 125 g ai/ha, Preemergence, scale 0 to 100 (0 no effect, 100 complete control)
[26] = 250 g ai/ha, Postemergence, scale 0 to 100 (0 no effect, 100 complete control)
[27] = Postemergence, 31 g ai/ha, visual, scale 0 no effect to 100 complete control
[28] = Preemergence, 31 g ai/ha, scale 0 to 100, 0 no effect, 100 complete control
[29] = Preemergence, 250 g ai/ha, visual, scale 0 no effect to 100 complete control
[30] = Preemergence, 125 g ai/ha, visual, scale 0 no effect to 100 complete control

## CCc1sc2ccc(C)cc2c1-c1c(O)c(C)nn(C)c1=O [Compound 47]
[1]; 31 g ai/ha, visual, scale 0 no effect to 100 complete control
  Plant response rating, Waterhemp_RES1: 60
[1]; [17]
  Plant response rating, Waterhemp_RES1: 70
[1]; [18]
  Plant response rating, Waterhemp_RES1: 80
[1]; 250 g ai/ha, scale 0 to 100 (0 no effect, 100 complete control)
  Plant response rating, Waterhemp_RES1: 95
[2]; [17]
  Plant response rating, Foxtail, Giant: 0
[2]; [19]
  Plant response rating, Foxtail, Giant: 0
[2]; [20]
  Plant response rating, Foxtail, Giant: 40
[2]; [21]
  Plant response rating, Foxtail, Giant: 80
[3]; [22]
  Plant response rating, Sandbur: 20
[3]; [23]
  Plant response rating, Sandbur: 0
[3]; [24]
  Plant response rating, Sandbur: 25
[3]; [25]
  Plant response rating, Sandbur: 10
[3]; [26]
  Plant response rating, Sandbur: 35
[3]; [27]
  Plant response rating, Sandbur: 20
[3]; [28]
  Plant response rating, Sandbur: 0
[3]; [29]
  Plant response rating, Sandbur: 70
[4]; [22]
  Plant response rating, Soybean: 25
[4]; [23]
  Plant response rating, Soybean: 0
[4]; [24]
  Plant response rating, Soybean: 20
[4]; [25]
  Plant response rating, Soybean: 0
[4]; [26]
  Plant response rating, Soybean: 30
[4]; [27]
  Plant response rating, Soybean: 20
[4]; [28]
  Plant response rating, Soybean: 0
[4]; [29]
  Plant response rating, Soybean: 40
[5]; [22]
  Plant response rating, Pigweed, Palmer: 35
[5]; [23]
  Plant response rating, Pigweed, Palmer: 0
[5]; [24]
  Plant response rating, Pigweed, Palmer: 30
[5]; [25]
  Plant response rating, Pigweed, Palmer: 25
[5]; [26]
  Plant response rating, Pigweed, Palmer: 70
[5]; [27]
  Plant response rating, Pigweed, Palmer: 35
[5]; [28]
  Plant response rating, Pigweed, Palmer: 0
[5]; [29]
  Plant response rating, Pigweed, Palmer: 65
[6]; [18]
  Plant response rating, Nutsedge, Yellow: 30
[6]; [19]
  Plant response rating, Nutsedge, Yellow: 0
[6]; [21]
  Plant response rating, Nutsedge, Yellow: 35
[7]; [17]
  Plant response rating, Crabgrass, Large: 0
[7]; [19]
  Plant response rating, Crabgrass, Large: 0
[7]; [20]
  Plant response rating, Crabgrass, Large: 0
[7]; [21]
  Plant response rating, Crabgrass, Large: 35
[8]; [22]
  Plant response rating, Panicum, Fall: 55
[8]; [23]
  Plant response rating, Panicum, Fall: 50
[8]; [24]
  Plant response rating, Panicum, Fall: 55
[8]; [25]
  Plant response rating, Panicum, Fall: 80
[8]; [26]
  Plant response rating, Panicum, Fall: 70
[8]; [27]
  Plant response rating, Panicum, Fall: 40
[8]; [28]
  Plant response rating, Panicum, Fall: 50
[8]; [29]
  Plant response rating, Panicum, Fall: 95
[9]; [22]
  Plant response rating, Crabgrass, Brazil: 20
[9]; [23]
  Plant response rating, Crabgrass, Brazil: 0
[9]; [24]
  Plant response rating, Crabgrass, Brazil: 25
[9]; [26]
  Plant response rating, Crabgrass, Brazil: 40
[9]; [27]
  Plant response rating, Crabgrass, Brazil: 20
[9]; [28]
  Plant response rating, Crabgrass, Brazil: 0
[9]; [30]
  Plant response rating, Crabgrass, Brazil: 0
[9]; [29]
  Plant response rating, Crabgrass, Brazil: 60
[10]; [17]
  Plant response rating, Johnsongrass: 0
[10]; [19]
  Plant response rating, Johnsongrass: 0
[10]; [20]
  Plant response rating, Johnsongrass: 0
[10]; [21]
  Plant response rating, Johnsongrass: 20
[11]; [17]
  Plant response rating, Lambsquarters: 100
[11]; [19]
  Plant response rating, Lambsquarters: 100
[11]; [20]
  Plant response rating, Lambsquarters: 100
[11]; [21]
  Plant response rating, Lambsquarters: 100
[12]; [22]
  Plant response rating, Dayflower, VA: 5
[12]; [23]
  Plant response rating, Dayflower, VA: 0
[12]; [24]
  Plant response rating, Dayflower, VA: 0
[12]; [26]
  Plant response rating, Dayflower, VA: 10
[12]; [27]
  Plant response rating, Dayflower, VA: 0
[12]; [28]
  Plant response rating, Dayflower, VA: 0
[12]; [30]
  Plant response rating, Dayflower, VA: 0
[12]; [29]
  Plant response rating, Dayflower, VA: 80
[13]; [17]
  Plant response rating, Foxtail, Green: 20
[13]; [19]
  Plant response rating, Foxtail, Green: 0
[13]; [20]
  Plant response rating, Foxtail, Green: 30
[13]; [21]
  Plant response rating, Foxtail, Green: 70
[14]; [22]
  Plant response rating, Kochia: 70
[14]; [23]
  Plant response rating, Kochia: 85
[14]; [24]
  Plant response rating, Kochia: 80
[14]; [26]
  Plant response rating, Kochia: 85
[14]; [27]
  Plant response rating, Kochia: 60
[14]; [28]
  Plant response rating, Kochia: 0
[14]; [30]
  Plant response rating, Kochia: 75
[14]; [29]
  Plant response rating, Kochia: 100
[15]; [22]
  Plant response rating, Corn: 5
[15]; [23]
  Plant response rating, Corn: 0
[15]; [24]
  Plant response rating, Corn: 5
[15]; [26]
  Plant response rating, Corn: 20
[15]; [27]
  Plant response rating, Corn: 0
[15]; [28]
  Plant response rating, Corn: 0
[15]; [30]
  Plant response rating, Corn: 0
[15]; [29]
  Plant response rating, Corn: 0
[16]; [18]
  Plant response rating, Velvetleaf: 75
[16]; [19]
  Plant response rating, Velvetleaf: 0
[16]; [21]
  Plant response rating, Velvetleaf: 100
